Results reported in BigSolDB 2.1.

A solubility (mole fraction) (in DMSO, 298.2 K) of 0.0278, a solubility (mole fraction) (in DMSO, 303.2 K) of 0.0309 and a solubility (mole fraction) (in DMSO, 308.2 K) of 0.0358 were found for CC1=CC(=O)C(C(C)C)=CC1=O in this work. It also gave a solubility (mole fraction) (in DMSO, 313.2 K) of 0.0402, a solubility (mole fraction) (in DMSO, 318.2 K) of 0.045 and a solubility (mole fraction) (in PEG-400, 298.2 K) of 0.0352. It also gave a solubility (mole fraction) (in PEG-400, 303.2 K) of 0.042, a solubility (mole fraction) (in PEG-400, 308.2 K) of 0.0508 and a solubility (mole fraction) (in PEG-400, 313.2 K) of 0.0617. For the same compound, the solubility (mole fraction) (in PEG-400, 318.2 K) was 0.0744, the solubility (mole fraction) (in ethanol, 298.2 K) was 0.0179 and the solubility (mole fraction) (in ethanol, 303.2 K) was 0.0206. It also gave a solubility (mole fraction) (in ethanol, 308.2 K) of 0.0238, a solubility (mole fraction) (in ethanol, 313.2 K) of 0.0278 and a solubility (mole fraction) (in ethanol, 318.2 K) of 0.0326. It also gave a solubility (mole fraction) (in ethyl acetate, 298.2 K) of 0.0312, a solubility (mole fraction) (in ethyl acetate, 303.2 K) of 0.0347 and a solubility (mole fraction) (in ethyl acetate, 308.2 K) of 0.0387. The solubility (mole fraction) (in ethyl acetate, 313.2 K) was 0.0431, the solubility (mole fraction) (in ethyl acetate, 318.2 K) was 0.0485 and the solubility (mole fraction) (in isopropanol, 298.2 K) was 0.0451. It also gave a solubility (mole fraction) (in isopropanol, 303.2 K) of 0.0514, a solubility (mole fraction) (in isopropanol, 308.2 K) of 0.0579 and a solubility (mole fraction) (in isopropanol, 313.2 K) of 0.0663. For the same compound, the solubility (mole fraction) (in isopropanol, 318.2 K) was 0.0758, the solubility (mole fraction) (in methanol, 298.2 K) was 0.01 and the solubility (mole fraction) (in methanol, 303.2 K) was 0.0116. It also gave a solubility (mole fraction) (in methanol, 308.2 K) of 0.0137, a solubility (mole fraction) (in methanol, 313.2 K) of 0.0157 and a solubility (mole fraction) (in methanol, 318.2 K) of 0.0182. It also gave a solubility (mole fraction) (in n-butanol, 298.2 K) of 0.0594, a solubility (mole fraction) (in n-butanol, 303.2 K) of 0.0658 and a solubility (mole fraction) (in n-butanol, 308.2 K) of 0.0744. For the same compound, the solubility (mole fraction) (in n-butanol, 313.2 K) was 0.082, the solubility (mole fraction) (in n-butanol, 318.2 K) was 0.0933 and the solubility (mole fraction) (in propylene glycol, 298.2 K) was 0.00553. It also gave a solubility (mole fraction) (in propylene glycol, 303.2 K) of 0.0069, a solubility (mole fraction) (in propylene glycol, 308.2 K) of 0.00891 and a solubility (mole fraction) (in propylene glycol, 313.2 K) of 0.0116. For the same compound, the solubility (mole fraction) (in propylene glycol, 318.2 K) was 0.0146, the solubility (mole fraction) (in sec-butanol, 298.2 K) was 0.0614 and the solubility (mole fraction) (in sec-butanol, 303.2 K) was 0.07. The solubility (mole fraction) (in sec-butanol, 308.2 K) was 0.0774, the solubility (mole fraction) (in sec-butanol, 313.2 K) was 0.0865 and the solubility (mole fraction) (in sec-butanol, 318.2 K) was 0.0973. For the same compound, the solubility (mole fraction) (in transcutol, 298.2 K) was 0.0664, the solubility (mole fraction) (in transcutol, 303.2 K) was 0.0755 and the solubility (mole fraction) (in transcutol, 308.2 K) was 0.0838. It also gave a solubility (mole fraction) (in transcutol, 313.2 K) of 0.0927, a solubility (mole fraction) (in transcutol, 318.2 K) of 0.103 and a solubility (mole fraction) (in water, 298.2 K) of 8.27e-05. For the same compound, the solubility (mole fraction) (in water, 303.2 K) was 9.39e-05, the solubility (mole fraction) (in water, 308.2 K) was 0.000108 and the solubility (mole fraction) (in water, 313.2 K) was 0.000131. For the same compound, the solubility (mole fraction) (in water, 318.2 K) was 0.000152.
